From PubChem BioAssay (NCI)
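Test compounds were applied to cells in 96-well plates for 48 hours at 5 doses. Here, GI50 denotes the concentration required for 50% inhibition of growth. TGI denotes the concentration required for complete inhibition of growth.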

Legend:
Assay in all cases: growth of human tumour cells (NCI), 48 h
[1] = system: NCI-H226 lung
[2] = system: NCI-H23 lung
[3] = system: NCI-H460 lung
[4] = system: NCI-H522 lung
[5] = system: NCI/ADR-RES ovarian
[6] = system: OVCAR-4 ovarian
[7] = system: OVCAR-5 ovarian
[8] = system: OVCAR-8 ovarian
[9] = system: PC-3 prostate
[10] = system: RPMI-8226 leukemia
[11] = system: RXF 393 renal
[12] = system: SF-268 CNS
[13] = system: SF-295 CNS
[14] = system: SF-539 CNS
[15] = system: SK-MEL-2 melanoma
[16] = system: SK-MEL-28 melanoma
[17] = system: SK-MEL-5 melanoma
[18] = system: SK-OV-3 ovarian
[19] = system: SN12C renal
[20] = system: SNB-19 CNS
[21] = system: SNB-75 CNS
[22] = system: SR leukemia
[23] = system: SW-620 colon
[24] = system: T-47D breast
[25] = system: TK-10 renal
[26] = system: U251 CNS
[27] = system: UACC-257 melanoma
[28] = system: UACC-62 melanoma
[29] = system: UO-31 renal

C#Cc1ccc(C(=O)NCc2ccc(/C=C/C(=O)c3nccn3C)cc2)cc1
TGI [1]: > 14.3 µM
GI50 [2]: 3.48 µM
TGI [2]: > 14.3 µM
GI50 [3]: 3.24 µM
TGI [3]: 9.03 µM
GI50 [4]: 6.16 µM
TGI [4]: > 14.3 µM
GI50 [5]: 3.67 µM
TGI [5]: > 14.3 µM
GI50 [6]: 5.71 µM
TGI [6]: > 14.3 µM
GI50 [7]: 4.75 µM
TGI [7]: > 14.3 µM
GI50 [8]: 3.11 µM
TGI [8]: 8.27 µM
GI50 [9]: 5.36 µM
TGI [9]: > 14.3 µM
GI50 [10]: 2.37 µM
TGI [10]: > 14.3 µM
GI50 [11]: 3.44 µM
TGI [11]: 14.2 µM
GI50 [12]: 3.36 µM
TGI [12]: 12.2 µM
GI50 [13]: 3.65 µM
TGI [13]: 13.2 µM
GI50 [14]: 2.65 µM
TGI [14]: 6.24 µM
GI50 [15]: > 14.3 µM
TGI [15]: > 14.3 µM
GI50 [16]: 6.16 µM
TGI [16]: > 14.3 µM
GI50 [17]: > 14.3 µM
TGI [17]: > 14.3 µM
GI50 [18]: 8.34 µM
TGI [18]: > 14.3 µM
GI50 [19]: 4.34 µM
TGI [19]: > 14.3 µM
GI50 [20]: 3.1 µM
TGI [20]: > 14.3 µM
GI50 [21]: 2.19 µM
TGI [21]: 10.7 µM
GI50 [22]: 0.93 µM
TGI [22]: > 14.3 µM
GI50 [23]: 4.31 µM
TGI [23]: > 14.3 µM
GI50 [24]: 6 µM
TGI [24]: > 14.3 µM
GI50 [25]: 5.42 µM
TGI [25]: > 14.3 µM
GI50 [26]: 2.15 µM
TGI [26]: > 14.3 µM
GI50 [27]: > 14.3 µM
TGI [27]: > 14.3 µM
GI50 [28]: 6.27 µM
TGI [28]: > 14.3 µM
GI50 [29]: 3.91 µM
TGI [29]: > 14.3 µM
